The source of these data is patent publication US8639486B2, “Method for identifying inhibitors of Staphylococcus aureus” (Indian Institute of Science, priority 2010, dated 2014).

Residues, ends and D or L forms follow the SMILES beside them.

In the first series the target is S. aureus N-Succinyl-L,L-DAP Desuccinylase (DapE), SEQ ID NO: 2 (Staphylococcus aureus, UniProt Q5HF23). Description: qualitative dipeptidase activity (TLC assay). The series is classed as biochemical, Staphylococcus aureus COL. More on the design: key: +: Mild hydrolytic activity; ++: Moderate hydrolytic activity; +++: High hydrolytic activity. The conditions noted are these: 5.0 mg/mL dipeptide, 2 μg DapE, 50 mM Tris-HCl pH 7.5, 37° C., 30 min.
Chain of S. aureus N-Succinyl-L,L-DAP Desuccinylase (DapE), SEQ ID NO: 2 (Q5HF23 whole entry): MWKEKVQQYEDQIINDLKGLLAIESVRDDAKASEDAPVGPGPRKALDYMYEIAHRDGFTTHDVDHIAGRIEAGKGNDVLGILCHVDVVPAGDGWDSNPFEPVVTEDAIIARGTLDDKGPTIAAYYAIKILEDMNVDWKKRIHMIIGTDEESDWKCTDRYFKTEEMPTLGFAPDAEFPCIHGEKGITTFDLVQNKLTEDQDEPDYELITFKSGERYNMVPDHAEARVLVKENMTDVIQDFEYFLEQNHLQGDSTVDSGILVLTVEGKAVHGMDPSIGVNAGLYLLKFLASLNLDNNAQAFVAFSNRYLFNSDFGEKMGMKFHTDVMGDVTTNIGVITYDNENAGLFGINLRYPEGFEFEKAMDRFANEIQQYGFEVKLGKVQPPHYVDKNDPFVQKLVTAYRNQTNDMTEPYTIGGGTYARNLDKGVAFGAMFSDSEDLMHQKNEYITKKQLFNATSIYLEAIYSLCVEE
For the compound `NCCCC[C@H](NC(=O)[C@@H](N)CC(=O)O)C(=O)O` [Asp-Lys] (H-Asp-Lys-OH), the “Activity (qualitative dipeptidase / hydrolytic activity)” value is listed as “+”. The same measure, in the same setting: next, `NCCCC[C@H](N)C(=O)N[C@@H](Cc1ccccc1)C(=O)O` [Lys-Phe]: “++”; `CC(C)C[C@H](NC(=O)[C@@H](N)CCCN=C(N)N)C(=O)O` [Arg-Leu] (H-Arg-Leu-OH): “+++”.

For the compound `C[C@H](NC(=O)[C@@H](N)CCCN=C(N)N)C(=O)O` [Arg-Ala] (H-Arg-Ala-OH), the “Activity (qualitative dipeptidase / hydrolytic activity)” value is recorded as “+++”. The same measure, in the same setting: next, `CC(C)C[C@H](NC(=O)[C@@H](N)Cc1cnc[nH]1)C(=O)O` [His-Leu] (H-His-Leu-OH): “+”. Still for that read-out and setting: the same measure for `CC(C)[C@H](NC(=O)[C@@H](N)Cc1ccccc1)C(=O)O` [Phe-Val] (H-Phe-Val-OH): “+++”; for `CC(C)[C@H](NC(=O)[C@@H](N)CCCN=C(N)N)C(=O)O` [Arg-Val] (H-Arg-Val-OH): “+++”. Consider `C[C@H](N)C(=O)N[C@@H](CO)C(=O)O` [Ala-Ser] (H-Ala-Ser-OH), for which the “Activity (qualitative dipeptidase / hydrolytic activity)” value was “+”.

As to `CC(C)C[C@H](NC(=O)[C@@H](N)CCCCN)C(=O)O` [Lys-Leu] (H-Lys-Leu-OH), the “Activity (qualitative dipeptidase / hydrolytic activity)” value was “++”. Still for that read-out and setting: next, `CC[C@H](C)[C@H](NC(=O)[C@@H](N)CCCN=C(N)N)C(=O)O` [Arg-Ile] (H-Arg-Ile-OH): “+++”. Still for that read-out and setting: the same measure for `N[C@@H](CO)C(=O)N[C@@H](Cc1cnc[nH]1)C(=O)O` [Ser-His] (H-Ser-His-OH): “++”.

For the compound `NCCCC[C@H](NC(=O)CN)C(=O)O` [Gly-Lys] (H-Gly-Lys-OH), the “Activity (qualitative dipeptidase / hydrolytic activity)” value was “+”. Still for that read-out and setting: next, `NCC(=O)N[C@@H](CO)C(=O)O` [Gly-Ser] (H-Gly-Ser-OH): “+”.

In another series the test system is CC(C)[C@H](NC(=O)[C@@H](N)Cc1ccccc1)C(=O)O. The experiment in a line: purified protein, by the assay type. Conditions: other: holo-DapE + Mn^2+ + TCEP, Phe-Val, pH 7.5, 37° C.
Turning to “S. aureus N-Succinyl-L,L-DAP Desuccinylase (DapE), holo form, SEQ ID NO: 2 (Staphylococcus aureus subsp. aureus COL)”, the Km was determined as 1100 ± 100 µM.

Staying with this series, now noted: other: holo-DapE + Mn^2+, Phe-Val, pH 7.5, 37° C.
In the case of “S. aureus N-Succinyl-L,L-DAP Desuccinylase (DapE), holo form, SEQ ID NO: 2 (Staphylococcus aureus subsp. aureus COL)”, the Km amounted to 1150 ± 120 µM.

The series is the same for the next values; noted with them: other: holo-DapE, Phe-Val, pH 7.5, 37° C.
For “S. aureus N-Succinyl-L,L-DAP Desuccinylase (DapE), holo form, SEQ ID NO: 2 (Staphylococcus aureus subsp. aureus COL)”, the Km worked out at 670 ± 100 µM.

The next series has as its system botanical DapA (N. sylvestris).
Experiment: not given
Conditions: highly sensitive, read-out: IC50 of feedback inhibition by L-lysine; cited from earlier work.
`NCCCC[C@H](N)C(=O)O` [L-lysine]: the IC50 was 0.015 to 0.02 mM.

In another series the target is DapA from gram negative bacteria (E. coli) (Escherichia coli, UniProt P0A6L2).
Chain of DapA from gram negative bacteria (E. coli) (P0A6L2 whole entry): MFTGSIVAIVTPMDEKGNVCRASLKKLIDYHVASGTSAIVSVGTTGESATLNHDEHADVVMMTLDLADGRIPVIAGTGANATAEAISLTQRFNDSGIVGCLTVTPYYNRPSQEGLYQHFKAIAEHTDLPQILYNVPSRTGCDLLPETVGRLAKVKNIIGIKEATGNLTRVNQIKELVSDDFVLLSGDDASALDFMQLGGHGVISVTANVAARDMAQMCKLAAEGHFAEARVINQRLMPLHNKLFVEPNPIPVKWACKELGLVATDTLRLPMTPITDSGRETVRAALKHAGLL
Experiment: not given
The conditions noted are these: less sensitive, read-out: IC50 of feedback inhibition by L-lysine; cited from earlier work.
With `NCCCC[C@H](N)C(=O)O` [L-lysine], the IC50 is 100 mM.
